{
  "source": "patent EP0479899B1",
  "about": "“VASODILATORY AND IMMUNE SUPPRESSANT PEPTIDES” (THE PRESIDENT AND FELLOWS OF HARVARD COLLEGE, priority 1989, dated 1991)",
  "system": "Human macrophages",
  "assay": "H₂O₂ production by IFN-γ activated macrophages (scopoletin fluorometric assay)",
  "type": "cell-based",
  "conditions": "3 hrs preincubation, up to 1000 ng/ml (2.5 X 10⁻⁷M); IFN-γ 200 units/ml; 3 days",
  "note": "Where no end group is shown, it is not given here.",
  "data": [
    {"substance": "Calcitonin: neuropeptide derived from the same gene as CGRP, available commercially (CGNLSTCMLGTYTQDFNKFHTFPQTAIGVGAP; ends and bridges not checked; cysteine pairing not given here; UniProt P01258 85-116, looked up)", "values": [
      {"measurement": "inhibition of H₂O₂ production by macrophages", "result": "inhibit H₂O₂ production by macrophages to a degree similar to that seen with CGRP"}
    ]}
  ]
}
